Values quoted from earlier work as cited in patent US20230094837A1, “Biodegradable and Multifunctional Neural Block Devices” (The Penn State Research Foundation, priority 2020, published 2023).

Tested on: femur mineral density
Details: rats, oral administration

For `OC[C@@H](O)[C@H](O)[C@@H](O)CO` [xylitol], the “effect on femur mineral density” value is listed as “increased femur mineral density”.
